From patent US20240124442A1, “TRICYCLIC-AMIDO-BICYCLIC PRMT5 INHIBITORS” (AMGEN INC., priority 2021, published 2024)
pIC50: −log10 of the molar value.

What was measured:
HCT116 MTAP null cells = assay: HCT116 MTAP null cell line proliferation / cell viability (CellTiter-Glo, 6 days); assay type: cell-based; conditions: 144 h; HCT116 MTAP null cells, 6 days treatment, CellTiter-Glo cell viability; read-out: HCT-116 MTAP null IC50
How it was run: (§1)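 Viability read by CellTiter-Glo luminescence after 6 days of compound treatment of HCT116 WT and MTAP-null cells (RPMI 1640, 10% FBS). Dose series were 1:3 steps from 1 or 10 μM (8–9 points), or 1:2 steps from 10 or 50 μM (22 points). IC50 from 4-parameter logistic or fixed-slope sigmoidal fit.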

HCT116 WT cells = assay: HCT116 WT (parent) cell line proliferation / cell viability (CellTiter-Glo, 6 days); assay type: cell-based; conditions: Homo sapiens, HCT-116, 144 h, 6 days treatment
How it was run: as §1

| Compound | pIC50 (HCT116 MTAP null cells) | pIC50 (HCT116 WT cells) |
| --- | --- | --- |
| CN(C(=O)c1ccc2nc(N)c3cnn(C)c3c2c1)[C@@H]1COCc2cc(C(F)(F)F)ncc21 [Example 500, 4-amino-N,1-dimethyl-N-((4S)-7-(trifluoromethyl)-3,4-dihydro-1H-pyrano[4,3-c]pyridin-4-yl)-1H-pyrazolo[4,3-c]quinoline-8-carboxamide] | 8.00 | 6.30 |
| CN(C(=O)c1ccc2nc(N)c3c(c2c1)COC3)[C@@H]1COc2cc(C3CC3)ccc21 (single isomer, unassigned) [Example 610] | 6.97 | 5.26 |
| CN(C(=O)c1cc2c(cc1F)nc(N)c1c2cnn1C)[C@@H]1COc2cc(-c3cnn(C(F)(F)F)c3)ccc21 [Example 260, 4-amino-7-fluoro-N,3-dimethyl-N-((3S)-6-(1-(trifluoromethyl)-1H-pyrazol-4-yl)-2,3-dihydro-1-benzofuran-3-yl)-3H-pyrazolo-[3,4-c]quinoline-8-carboxamide] | 7.09 | 4.98 |
| CN(C(=O)c1ccc2nc(N)c3cnn(C)c3c2c1)[C@@H]1COc2cc(-c3cccnc3C(F)(F)F)ccc21 [Example 649, 4-amino-N,1-dimethyl-N-((3S)-6-(2-(trifluoromethyl)-3-pyridinyl)-2,3-dihydro-1-benzofuran-3-yl)-1H-pyrazolo[4,3-c]quinoline-8-carboxamide] | 7.74 | 5.98 |
| CN(C(=O)c1ccc2nc(N)c3cnn(C)c3c2c1)[C@H]1COc2cc(Br)cnc21 [Example 236, 4-amino-N-((3R)-6-bromo-2,3-dihydrofuro[3,2-b]pyridin-3-yl)-N,1-dimethyl-1H-pyrazolo[4,3-c]quinoline-8-carboxamide] | 6.10 | 4.62 |
| CN(C(=O)c1ccc2nc(N)c3ncncc3c2c1)[C@@H]1COc2cc(C(F)(F)F)ccc21 [Example 221, 5-amino-N-methyl-N-((3S)-6-(trifluoromethyl)-2,3-dihydro-1-benzofuran-3-yl)pyrimido-[4,5-c]quinoline-9-carboxamide] | 6.23 | 5.37 |
| CN(C(=O)c1cc2c3c(c(N)nc2cn1)COC3)[C@@H]1COc2cc(Cl)ccc21 (single isomer, unassigned) [Example 333] | 6.76 | 5.07 |
| Cn1ncc2c(N)nc3ccc(C(=O)N(CC4CC4)[C@@H]4COCc5nc(C(F)(F)F)ccc54)cc3c21 (single isomer, unassigned) [Example 593] | 8.30 | 6.70 |
| CN(C(=O)c1cc2c(cc1F)nc(N)c1c2cnn1C)[C@H]1CCc2nc(C(F)(F)F)ccc21 (single isomer, unassigned) [Example 390] | 5.18 | 4.60 |
| C[C@H]1OCc2c1c(N)nc1ccc(C(=O)N(C)[C@@H]3COc4cc(-c5cnn(C)c5)ccc43)cc21 [Example 204, (3R)-4-amino-N,3-dimethyl-N-((3S)-6-(1-methyl-1H-pyrazol-4-yl)-2,3-dihydro-1-benzofuran-3-yl)-1,3-dihydrofuro[3,4-c]-quinoline-8-carboxamide] | 7.51 | 5.36 |
| CN(C(=O)c1cc2c(cn1)nc(N)c1cnn(C)c12)[C@@H]1COc2cc(Cl)c(Cl)cc21 [Example 474, 4-amino-N-((3S)-5,6-dichloro-2,3-dihydro-1-benzofuran-3-yl)-N,1-dimethyl-1H-pyrazolo[4,3-c][1,7]naphthyridine-8-carboxamide] | 8.10 | 6.76 |
| Nc1nc2cc(F)c(C(=O)N(C3CC3)[C@H]3COc4cc(C(F)(F)F)ccc43)cc2c2c1COC2 (single isomer, unassigned) [Example 555] | 5.79 | 4.88 |
| CN(C(=O)c1cc2c3c(c(N)nc2cc1F)COC3)[C@@H]1COc2cc(C(F)(F)F)cnc21 (mixture of isomers) [Example 461, 4-amino-7-fluoro-N-methyl-N-((3R)-6-(trifluoromethyl)-2,3-dihydrofuro[3,2-b]pyridin-3-yl)-1,3-dihydrofuro[3,4-c]quinoline-8-carboxamide and 4-amino-7-fluoro-N-methyl-N-((3S)-6-(trifluoromethyl)-2,3-dihydrofuro[3,2-b]pyridin-3-yl)-1,3-dihydrofuro[3,4-c]quinoline-8-carboxamide] | 6.06 | 4.42 |
| CN(C(=O)c1cc2c3c(c(N)nc2cn1)COC3)[C@@H]1COCc2nc(C(F)(F)F)ccc21 [Example 491, 4-amino-N-methyl-N-((5S)-2-(trifluoromethyl)-5,8-dihydro-6H-pyrano[3,4-b]pyridin-5-yl)-1,3-dihydrofuro[3,4-c][1,7]naphthyridine-8-carboxamide] | 7.37 | 5.69 |
| CN(C(=O)c1cc2c(cc1F)nc(N)c1cnn(C)c12)[C@H]1COc2cc(Cl)c(Cl)cc21 [Example 477, 4-amino-N-((3R)-5,6-dichloro-2,3-dihydro-1-benzofuran-3-yl)-7-fluoro-N,1-dimethyl-1H-pyrazolo[4,3-c]quinoline-8-carboxamide] | 7.04 | 5.60 |
| CN(C(=O)c1ccc2nc(N)c3cnn(C)c3c2c1)[C@@H]1COc2cc(OC3COC3)ccc21 [Example 677, 4-amino-N,1-dimethyl-N-((3S)-6-(3-oxetanyloxy)-2,3-dihydro-1-benzofuran-3-yl)-1H-pyrazolo[4,3-c]quinoline-8-carboxamide] | 6.86 | 5.01 |
| CN(C(=O)c1cc2c(cc1Cl)nc(N)c1cnn(C)c12)[C@@H]1COCc2nc(C(F)(F)F)ccc21 [Example 295, 4-amino-7-chloro-N,1-dimethyl-N-((5S)-2-(trifluoromethyl)-5,8-dihydro-6H-pyrano[3,4-b]-pyridin-5-yl)-1H-pyrazolo[4,3-c]quinoline-8-carboxamide] | 8.70 | 7.47 |
| CN(C(=O)c1ccc2nc(N)c3cnn(C)c3c2c1)[C@H]1COc2cc(C(F)(F)F)cc(Cl)c21 [Example 232, 4-amino-N-((3R)-4-chloro-6-(trifluoromethyl)-2,3-dihydro-1-benzofuran-3-yl)-N,1-dimethyl-1H-pyrazolo[4,3-c]-quinoline-8-carboxamide] | 6.65 | 5.60 |
| CN(C(=O)c1cc2c3c(c(N)nc2cc1F)COC3)[C@@H]1COCc2cc(-c3ccc(C(F)(F)F)cc3)ccc21 (single isomer, unassigned) [Example 666] | 7.66 | 5.96 |
| CN(C(=O)c1cc2c(cc1Cl)nc(N)c1c2cnn1C)[C@@H]1COCc2nc(C(F)(F)F)ccc21 [Example 519, 4-amino-7-chloro-N,3-dimethyl-N-((5S)-2-(trifluoromethyl)-5,8-dihydro-6H-pyrano[3,4-b]pyridin-5-yl)-3H-pyrazolo[3,4-c]quinoline-8-carboxamide] | 7.57 | 5.86 |
| Cc1nn(C)c2c1c(N)nc1ccc(C(=O)N(C)[C@@H]3COCc4nc(C(F)(F)F)ccc43)cc12 [Example 309, 4-amino-N,1,3-trimethyl-N-((5S)-2-(trifluoromethyl)-5,8-dihydro-6H-pyrano[3,4-b]pyr-idin-5-yl)-1H-pyrazolo[4,3-c]-quinoline-8-carboxamide] | 6.82 | 5.02 |
| Nc1nc2ccc(C(=O)N(C3CC3)C3COc4cc(C(F)(F)F)ccc43)cc2c2c1COC2 (racemic) [Example 449, 4-amino-N-cyclopropyl-N-((3R)-6-(trifluoromethyl)-2,3-dihydro-1-benzofuran-3-yl)-1,3-dihydrofuro[3,4-c]quinoline-8-carboxamide and 4-amino-N-cyclopropyl-N-((3S)-6-(trifluoromethyl)-2,3-dihydro-1-benzofuran-3-yl)-1,3-dihydrofuro[3,4-c]quinoline-8-carboxamide] | 7.02 | 5.48 |
| Cc1ccc2c(c1)OC[C@H]2N(C)C(=O)c1ccc2nc(N)c3cnn(C)c3c2c1 [Example 683, 4-amino-N,1-dimethyl-N-((3S)-6-methyl-2,3-dihydro-1-benzofuran-3-yl)-1H-pyrazolo[4,3-c]quinoline-8-carboxamide] | 7.42 | 5.45 |
| CN(C(=O)c1ccc2nc(N)c3c(c2c1)COC3)[C@H]1CCc2cc(OC(F)(F)F)ccc21 (single isomer, unassigned) [Example 532] | 5.60 | 5.18 |
| CN(C(=O)c1ccc2nc(N)c3cnn(C)c3c2c1)[C@@H]1COc2cc(C3CCOCC3)ccc21 [Example 688, (S)-4-amino-N,1-dimethyl-N-(6-(tetrahydro-2H-pyran-4-yl)-2,3-dihydrobenzofuran-3-yl)-1H-pyrazolo[4,3-c]quinoline-8-carboxamide] | 8.30 | 6.37 |
| CN(C(=O)c1ccc2nc(N)c3cnn(C)c3c2c1)[C@@H]1COc2cc(-c3ccn(C)c3)ccc21 [Example 616, 4-amino-N,1-dimethyl-N-((3S)-6-(1-methyl-1H-pyrrol-3-yl)-2,3-dihydro-1-benzofuran-3-yl)-1H-pyrazolo[4,3-c]quinoline-8-carboxamide] | 7.49 | 5.44 |
| C[C@H]1OCc2c1c(N)nc1ccc(C(=O)N(C)[C@H]3COc4cc(Br)ccc43)cc21 (single isomer, unassigned) [Example 332] | 6.04 | 4.65 |
| CN(C(=O)c1cc2c3c(c(N)nc2cc1Cl)COC3)[C@H]1COCc2c1ccc(C(F)(F)F)c2F (single isomer, unassigned) [Example 405] | 6.16 | 4.83 |
| CN(C(=O)c1cc2c(cc1F)nc(N)c1cnn(C)c12)C1COc2nc(C(F)(F)F)ccc21 (racemic) [Example 242, 4-amino-7-fluoro-N,1-dimethyl-N-((3R)-6-(trifluoromethyl)-2,3-dihydrofuro[2,3-b]pyridin-3-yl)-1H-pyrazolo[4,3-c]-quinoline-8-carboxamide and 4-amino-7-fluoro-N,1-dimethyl-N-((3S)-6-(trifluoromethyl)-2,3-dihydrofuro[2,3-b]pyridin-3-yl)-1H-pyrazolo[4,3-c]-quinoline-8-carboxamide] | 8.30 | 6.27 |
